Laboratory results from ChEMBL document CHEMBL3885881, “DrugMatrix”.
“And” between values parts separate entries of the source, which are not always exact repeats. Identical values can stand only once.

Organism: Rattus norvegicus
Test: DrugMatrix - Regimen: Daily Repeat
Type: toxicity, organism-based, Sprague-Dawley
Design: regimen Daily Repeat, gender Male, age 6-8 weeks
Details: in vivo, po, route oral GAVAGE, vehicle 100 % WATER; for ABSOLUTE BASOPHIL / ABSOLUTE LYMPHOCYTE / ABSOLUTE MONOCYTE / ABSOLUTE SEGMENTED NEUTROPHIL / BASOPHIL / EOSINOPHIL / ERYTHROCYTE COUNT / HEMATOCRIT / HEMOGLOBIN / LEUKOCYTE COUNT / LYMPHOCYTE / MEAN CORPUSCULAR HEMOGLOBIN / MEAN CORPUSCULAR HEMOGLOBIN CONCENTRATION / MEAN CORPUSCULAR VOLUME / MONOCYTE / NEUTROPHIL / NUCLEATED RED BLOOD CELLS / PLATELET COUNT / ABSOLUTE EOSINOPHIL: tissue Blood; for ALANINE AMINOTRANSFERASE / ALBUMIN / ALKALINE PHOSPHATASE / ASPARTATE AMINOTRANSFERASE / BLOOD UREA NITROGEN / CARBON DIOXIDE / CHLORIDE / CHOLESTEROL / CREATINE PHOSPHOKINASE / CREATININE / GLUCOSE / LACTATE DEHYDROGENASE / LIPASE / PHOSPHORUS / POTASSIUM / SODIUM / TOTAL BILIRUBIN / TOTAL PROTEIN / URIC ACID: tissue Plasma
[1] = 0 mg/kg, 72 h, dose level Control, time 3 day
[2] = 0 mg/kg, 120 h, dose level Control, time 5 day
[3] = 4.5 mg/kg, 72 h, dose level Low, time 3 day

In the case of COc1ccc2c(c1)c(CC(=O)O)c(C)n2C(=O)c1ccc(Cl)cc1 [INDOMETHACIN], the “ABSOLUTE BASOPHIL” value [1] is reported as 0 CELLS/uL, the “ABSOLUTE LYMPHOCYTE” value [1] is reported as 6747 CELLS/uL and 14108.83 CELLS/uL and the “ABSOLUTE MONOCYTE” value [1] is reported as 73 CELLS/uL and 81 CELLS/uL. The “ABSOLUTE SEGMENTED NEUTROPHIL” value [1] was 480 CELLS/uL and 818.67 CELLS/uL, the BASOPHIL [1] was 0% and the EOSINOPHIL [1] was 0% and 0.67%. For the same compound, the “ERYTHROCYTE COUNT” value [1] was 5.14 x10E6/uL and 5.56 x10E6/uL, the HEMATOCRIT [1] was 32.27% and 34.5% and the HEMOGLOBIN [1] was 12.53 G/DL and 13.45 G/DL. For the same compound, the “LEUKOCYTE COUNT” value [1] was 7.3 x10E3/uL and 15.1 x10E3/uL, the LYMPHOCYTE [1] was 93% and the “MEAN CORPUSCULAR HEMOGLOBIN” value [1] was 24.37 pg and 24.2 pg. The “MEAN CORPUSCULAR HEMOGLOBIN CONCENTRATION” value [1] was 38.87 G/DL and 38.98 G/DL, the “MEAN CORPUSCULAR VOLUME” value [1] was 62.7 fL and 62.07 fL and the MONOCYTE [1] was 1% and 0.5%. For the same compound, the NEUTROPHIL [1] was 6% and 5.83%, the “NUCLEATED RED BLOOD CELLS” value [1] was 0 /100WBC and the “PLATELET COUNT” value [1] was 1023 x10E3/uL and 1193.33 x10E3/uL. For the same compound, the “ALANINE AMINOTRANSFERASE” value [1] was 49.33 u/L and 60.33 u/L, the ALBUMIN [1] was 3.73 G/DL and 4 G/DL and the “ALKALINE PHOSPHATASE” value [1] was 331 u/L and 334.83 u/L. For the same compound, the “ASPARTATE AMINOTRANSFERASE” value [1] was 79.67 u/L and 74.5 u/L, the “BLOOD UREA NITROGEN” value [1] was 15.33 mg/dL and 13.5 mg/dL and the “CARBON DIOXIDE” value [1] was 30.33 mmol/L. For the same compound, the CHLORIDE [1] was 100.67 MEQ/L and 98.33 MEQ/L, the CHOLESTEROL [1] was 77 mg/dL and 71.17 mg/dL and the “CREATINE PHOSPHOKINASE” value [1] was 319.67 u/L and 212 u/L. The CREATININE [1] was 0.11 mg/dL and 0.21 mg/dL, the GLUCOSE [1] was 169 mg/dL and 173.17 mg/dL and the “LACTATE DEHYDROGENASE” value [1] was 113.33 u/L and 101.5 u/L. The LIPASE [1] was 10.33 u/L and 24.17 u/L, the PHOSPHORUS [1] was 11.97 mg/dL and 10.87 mg/dL and the POTASSIUM [1] was 5.06 MEQ/L and 6.06 MEQ/L. For the same compound, the SODIUM [1] was 144.13 MEQ/L and 140.58 MEQ/L, the “TOTAL BILIRUBIN” value [1] was 0.2 mg/dL and 0.17 mg/dL and the “TOTAL PROTEIN” value [1] was 5.8 G/DL and 5.9 G/DL. The “URIC ACID” value [1] was 0.57 mg/dL and 1.23 mg/dL, the “ABSOLUTE BASOPHIL” value [2] was 0 CELLS/uL and the “ABSOLUTE EOSINOPHIL” value [2] was 31.33 CELLS/uL and 34.5 CELLS/uL. For the same compound, the “ABSOLUTE LYMPHOCYTE” value [2] was 7806.33 CELLS/uL and 8181 CELLS/uL, the “ABSOLUTE MONOCYTE” value [2] was 202 CELLS/uL and 82.67 CELLS/uL and the “ABSOLUTE SEGMENTED NEUTROPHIL” value [2] was 927 CELLS/uL and 435.17 CELLS/uL. The BASOPHIL [2] was 0%, the EOSINOPHIL [2] was 0.33% and 0.5% and the “ERYTHROCYTE COUNT” value [2] was 4.96 x10E6/uL and 5.31 x10E6/uL. The HEMATOCRIT [2] was 32.37% and 33.83%, the HEMOGLOBIN [2] was 12.53 G/DL and 13.37 G/DL and the “LEUKOCYTE COUNT” value [2] was 8.97 x10E3/uL and 8.73 x10E3/uL. For the same compound, the LYMPHOCYTE [2] was 87.33% and 93.5%, the “MEAN CORPUSCULAR HEMOGLOBIN” value [2] was 25.27 pg and 25.2 pg and the “MEAN CORPUSCULAR HEMOGLOBIN CONCENTRATION” value [2] was 38.7 G/DL and 39.53 G/DL. The “MEAN CORPUSCULAR VOLUME” value [2] was 65.23 fL and 63.73 fL, the MONOCYTE [2] was 2.33% and 1% and the NEUTROPHIL [2] was 10% and 5%. The “NUCLEATED RED BLOOD CELLS” value [2] was 0 /100WBC, the “PLATELET COUNT” value [2] was 1189.33 x10E3/uL and 1057.33 x10E3/uL and the “ALANINE AMINOTRANSFERASE” value [2] was 53.33 u/L and 54.33 u/L. The ALBUMIN [2] was 3.97 G/DL and 4.07 G/DL, the “ALKALINE PHOSPHATASE” value [2] was 326 u/L and 308.67 u/L and the “ASPARTATE AMINOTRANSFERASE” value [2] was 59.67 u/L and 83.17 u/L. For the same compound, the “BLOOD UREA NITROGEN” value [2] was 15 mg/dL and 14 mg/dL, the “CARBON DIOXIDE” value [2] was 33.67 mmol/L and 34 mmol/L and the CHLORIDE [2] was 105 MEQ/L and 98 MEQ/L. For the same compound, the CHOLESTEROL [2] was 73 mg/dL and 71.33 mg/dL, the “CREATINE PHOSPHOKINASE” value [2] was 208.33 u/L and 266.5 u/L and the CREATININE [2] was 0.1 mg/dL and 0.27 mg/dL. The GLUCOSE [2] was 153.33 mg/dL and 133 mg/dL, the “LACTATE DEHYDROGENASE” value [2] was 62 u/L and 127 u/L and the LIPASE [2] was 10.33 u/L and 11.67 u/L. The PHOSPHORUS [2] was 10.93 mg/dL and 10.6 mg/dL, the POTASSIUM [2] was 5.5 MEQ/L and 6.17 MEQ/L and the SODIUM [2] was 147.27 MEQ/L and 142.68 MEQ/L. The “TOTAL BILIRUBIN” value [2] was 0.17 mg/dL and 0.15 mg/dL, the “TOTAL PROTEIN” value [2] was 5.87 G/DL and 6.03 G/DL and the “URIC ACID” value [2] was 0.4 mg/dL and 0.75 mg/dL. For the same compound, the “ABSOLUTE BASOPHIL” value [3] was 0 CELLS/uL, the “ABSOLUTE EOSINOPHIL” value [3] was 0 CELLS/uL and the “ABSOLUTE LYMPHOCYTE” value [3] was 7564.67 CELLS/uL. For the same compound, the “ABSOLUTE MONOCYTE” value [3] was 197.67 CELLS/uL, the “ABSOLUTE SEGMENTED NEUTROPHIL” value [3] was 937.67 CELLS/uL and the BASOPHIL [3] was 0%. For the same compound, the EOSINOPHIL [3] was 0% and the “ERYTHROCYTE COUNT” value [3] was 5.16 x10E6/uL.
